target: human mTOR enzyme (Homo sapiens, UniProt P42345); assay: HTRF mTOR enzyme (kinase) assay; format: biochemical; details: rated class; 5 μM ATP, 0.2 μM GST-S6K; read-out: hMTOR IC50
Experimental: Methods: An HTRF mTOR enzyme assay was developed to assess the compounds' inhibitory activity. The mTOR assay buffer contained 10 mM Hepes (pH 7.4), 50 mM NaCl, […] BSA, 50 mM […], 10 mM MnCl2 and 0.5 mM DTT. […] 20 ng of human mTOR enzyme (<5% pure was preincubated with the compound for 10 minutes followed by the addition of 5 μM ATP and 0.2 μM GST-S6K (Zhang et al., Protein Expression and Purification 46, pp 414-420 (2006)). The reaction was incubated for one hour at 30° C. Anti phospho p70-S6K(Thr389) (˜1.7 ng/well, anti-phospho-p70S6K-cryptate (Pho-p70S6-Kin-K cat#64CUSKAY, from Cisbio)) and anti GST-XL665 (1:1 Ratio with the substrate GST-S6K, anti GST-XL665, cat#61GSTXLB) Cisbio) were added after the reaction was stopped. The plates were read (PHERAstar, BMG) at least 2 hours after adding the anti phospho p70-S6K and the anti GST-XL665.
IC50 DETERMINATIONS: Dose-response curves were plotted from the inhibition data generated, each in duplicate, from 8 point serial dilutions of inhibitory compounds. Concentration of compound was plotted against the HTRF em665/em590 ratio signal. To generate IC50 values, the dose-response curves were fitted to a standard sigmoidal curve and IC50 values were derived by nonlinear regression analysis.

Sequence of human mTOR enzyme (P42345 1360-2549 limits assumed): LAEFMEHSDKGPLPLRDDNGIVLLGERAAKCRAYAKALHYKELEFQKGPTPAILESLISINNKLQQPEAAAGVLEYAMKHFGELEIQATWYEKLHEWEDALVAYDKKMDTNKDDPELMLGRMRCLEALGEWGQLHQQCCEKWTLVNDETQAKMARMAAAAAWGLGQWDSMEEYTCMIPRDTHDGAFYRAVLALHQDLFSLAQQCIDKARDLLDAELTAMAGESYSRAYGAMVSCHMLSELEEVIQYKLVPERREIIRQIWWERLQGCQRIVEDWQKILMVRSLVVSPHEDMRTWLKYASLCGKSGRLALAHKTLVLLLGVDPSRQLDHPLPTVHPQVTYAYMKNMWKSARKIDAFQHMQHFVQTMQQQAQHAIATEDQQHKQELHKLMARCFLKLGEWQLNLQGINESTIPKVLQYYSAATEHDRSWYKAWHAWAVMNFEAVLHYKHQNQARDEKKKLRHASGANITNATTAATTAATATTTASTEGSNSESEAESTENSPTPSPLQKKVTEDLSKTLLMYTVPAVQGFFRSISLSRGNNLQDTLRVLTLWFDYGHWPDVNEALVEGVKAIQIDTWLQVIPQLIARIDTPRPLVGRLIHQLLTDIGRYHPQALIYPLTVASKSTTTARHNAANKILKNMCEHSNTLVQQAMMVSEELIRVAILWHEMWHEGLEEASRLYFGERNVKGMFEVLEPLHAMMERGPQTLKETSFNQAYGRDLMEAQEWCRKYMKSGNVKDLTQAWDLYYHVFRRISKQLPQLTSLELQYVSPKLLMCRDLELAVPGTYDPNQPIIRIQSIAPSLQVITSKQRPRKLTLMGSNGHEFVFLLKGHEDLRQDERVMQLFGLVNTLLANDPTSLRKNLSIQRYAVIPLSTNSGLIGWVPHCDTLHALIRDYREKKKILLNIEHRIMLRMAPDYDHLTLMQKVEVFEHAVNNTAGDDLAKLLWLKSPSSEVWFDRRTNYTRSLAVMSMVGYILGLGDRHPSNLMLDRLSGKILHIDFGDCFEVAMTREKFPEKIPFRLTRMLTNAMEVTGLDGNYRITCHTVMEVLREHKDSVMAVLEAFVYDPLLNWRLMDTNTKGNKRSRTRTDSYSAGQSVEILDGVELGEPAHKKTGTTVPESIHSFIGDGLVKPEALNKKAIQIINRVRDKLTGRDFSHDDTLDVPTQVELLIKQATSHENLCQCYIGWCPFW

Row | Structure (SMILES) | IC50 [nM]
1 | COCCO[C@]1(C(=O)O)CC[C@@H](c2nc3c(-c4cnc(-c5ccn(C)n5)nc4)cnn3c(N)c2S(C)(=O)=O)CC1 [Compound 49, (1R,4R)-4-(7-amino-3-(2-(1-methyl-1H-pyrazol-3-yl)pyrimidin-5-yl)-6-(methylsulfonyl)-pyrazolo[1,5-a]-pyrimidin-5-yl)-1-(2-mcthoxyethoxy)-cyclohexanecarboxylic acid] | 1 to 100
2 | COCCO[C@]1(C(=O)O)CC[C@@H](c2nc3c(-c4cnn(-c5ccc(S(C)(=O)=O)cc5)c4)cnn3c(N)c2S(C)(=O)=O)CC1 [Compound 53, (1R,4R)-4-(7-amino-6-(methylsulfonyl)-3-(1-(4-(methylsulfonyl)phenyl)-1H-pyrazol-4-yl)pyrazolo[1,5-a]pyrimidin-5-yl)-1-(2-methoxyethoxy)cyclohexanecarboxylic acid] | 100 to 1000
3 | CO[C@]1(CC(=O)O)CC[C@H](c2nc3c(-c4ccc(-c5ccccc5)nc4)cnn3c(N)c2Br)CC1 [Compound 80, 2-((1S,4S)-4-(7-amino-6-bromo-3-(6-phenylpyridin-3-yl)pyrazolo[1,5-a]pyrimidin-5-yl)-1-methoxycyclohexyl)acetic acid] | 100 to 1000
4 | CO[C@]1(CC(=O)O)CC[C@@H](c2nc3c(-c4ccc(-c5ccccc5)nc4)cnn3c(N)c2Br)CC1 [Compound 81] | 100 to 1000
5 | COCCO[C@]1(C(=O)N(C)OC)CC[C@@H](c2nc3c(-c4cnn(-c5ccccc5)c4)cnn3c(N)c2S(C)(=O)=O)CC1 [Compound 97, (1R,4R)-4-(7-amino-6-(methylsulfonyl)-3-(1-phenyl-1H-pyrazol-4-yl)pyrazolo[1,5-a]pyrimidin-5-yl)-N-methoxy-1-(2-methoxyethoxy)-N-methylcyclohexane-carboxamide] | 1 to 100
6 | CCONC(=O)[C@]1(OCCOC)CC[C@H](c2nc3c(-c4cnn(-c5ccccc5)c4)cnn3c(N)c2S(C)(=O)=O)CC1 [Compound 98, (1R,4R)-4-(7-amino-6-(methylsulfonyl)-3-(1-phenyl-1H-pyrazol-4-yl)pyrazolo[1,5-a]pyrimidin-5-yl)-N-ethoxy-1-(2-methoxyethoxy)-cyclohexane-carboxamide] | 1 to 100
7 | COCCONC(=O)[C@]1(OCCOC)CC[C@H](c2nc3c(-c4cnn(-c5ccccc5)c4)cnn3c(N)c2S(C)(=O)=O)CC1 [Compound 101] | 1 to 100
8 | COCCO[C@]1(C(=O)c2nnc[nH]2)CC[C@H](c2nc3c(-c4ccc(-c5ccccc5)nc4)cnn3c(N)c2S(C)(=O)=O)CC1 [Compound 124, ((1S,4S)-4-(7-amino-6-(methylsulfonyl)-3-(6-phenylpyridin-3-yl)pyrazolo[1,5-a]pyrimidin-5-yl)-1-(2-methoxyethoxy)cyclohexyl)(4H-1,2,4-triazol-3-yl)methanone] | 1 to 100
9 | COCCO[C@]1(C(=O)CO)CC[C@@H](c2nc3c(-c4ccc(-c5ccccc5)nc4)cnn3c(N)c2S(C)(=O)=O)CC1 [Compound 130, 1-((1R,4R)-4-(7-amino-6-(methylsulfonyl)-3-(6-phenylpyridin-3-yl)pyrazolo[1,5-a]pyrimidin-5-yl)-1-(2-methoxyethoxy)cyclohexyl)-2-hydroxyethanone] | 1 to 100
10 | CC(=O)c1c(N)n2ncc(-c3cnn(-c4cnn(C)c4)c3)c2nc1[C@H]1CC[C@](O)(CO)CC1 [Compound 149, 1-(7-amino-5-((1S,4S)-4-hydroxy-4-(hydroxymethyl)-cyclohexyl)-3-(1′-methyl-1′H-1,4′-bipyrazol-4-yl)pyrazolo[1,5-a]pyrimidin-6-yl)ethanone] | 100 to 1000
11 | COC(=O)c1cccc(-c2ccc(-c3cnn4c(N)c(C(C)=O)c(C5CCC(O)(CO)CC5)nc34)cn2)c1 (stereo not drawn) [Compound 150, methyl 3-(5-(6-acetyl-7-amino-5-(4-hydroxy-4-(hydroxymethyl)-cyclohexyl)-pyrazolo-[1,5-a]pyrimidin-3-yl)pyridin-2-yl)benzoate] | 1 to 100
12 | CC(=O)c1c(C2CCC(O)(CO)CC2)nc2c(-c3ccc(-c4cccc(C(=O)O)c4)nc3)cnn2c1N (stereo not drawn) [Compound 151, 3-(5-(6-acetyl-7-amino-5-(4-hydroxy-4-(hydroxymethyl)-cyclohexyl)-pyrazolo-[1,5-a]pyrimidin-3-yl)pyridin-2-yl)benzoic acid] | 1 to 100
13 | COC(=O)c1cc(-c2ccc(-c3cnn4c(N)c(C(C)=O)c([C@H]5CC[C@](O)(CO)CC5)nc34)cn2)ccc1OC [Compound 154, methyl 5-(5-(6-acetyl-7-amino-5-((1S,4S)-4-hydroxy-4-(hydroxymethyl)-cyclohexyl)-pyrazolo-[1,5-a]pyrimidin-3-yl)pyridin-2-yl)-2-methoxybenzoate] | 1 to 100

The next lines start with the values.

Row | IC50 [nM] | Structure (SMILES)
14 | 100 to 1000 | COC[C@]1(C(=O)O)CC[C@H](c2nc3c(-c4cnn(-c5ccccc5)c4)cnn3c(N)c2C(C)=O)CC1 [Compound 20, (1R,4R)-4-(6-acetyl-7-amino-3-(1-phenyl-1H-pyrazol-4-yl)pyrazolo[1,5-a]pyrimidin-5-yl)-1-(methoxymethyl)-cyclohexane-carboxylic acid]
15 | 1 to 100 | COCCO[C@]1(C(=O)O)CC[C@@H](c2nc3c(-c4ccc(-c5ccn(C)n5)[n+]([O-])c4)cnn3c(N)c2S(C)(=O)=O)CC1 [Compound 45, 5-(7-amino-5-((1R,4R)-4-carboxy-4-(2-methoxyethoxy)cyclohexyl)-6-(methylsulfonyl)-pyrazolo[1,5-a]pyrimidin-3-yl)-2-(1-methyl-1H-pyrazol-3-yl)pyridine 1-oxide]
16 | 1 to 100 | COCCO[C@]1(C(=O)O)CC[C@H](c2nc3c(-c4ccc(-c5nccs5)nc4)cnn3c(N)c2C(C)=O)CC1 [Compound 59]
17 | 1 to 100 | COCCO[C@]1(C(=O)O)CC[C@H](c2nc3c(-c4ccc(-c5cscn5)nc4)cnn3c(N)c2C(C)=O)CC1 [Compound 61, (1S,4S)-4-(6-acetyl-7-amino-3-(6-(thiazol-4-yl)pyridin-3-yl)pyrazolo[1,5-a]pyrimidin-5-yl)-1-(2-methoxyethoxy) cyclohexanecarboxylic acid]
18 | 1 to 100 | COCCO[C@]1(C(=O)NOCC2CC2)CC[C@@H](c2nc3c(-c4cnn(-c5ccccc5)c4)cnn3c(N)c2S(C)(=O)=O)CC1 [Compound 99, (1R,4R)-4-(7-amino-6-(methylsulfonyl)-3-(1-phenyl-1H-pyrazol-4-yl)pyrazolo[1,5-a]pyrimidin-5-yl)-N-(cyclopropylmethoxy)-1-(2-methoxyethoxy)-cyclohexane-carboxamide]
19 | 1 to 100 | COCCO[C@]1(C(=O)NOCC2CC2)CC[C@@H](c2nc3c(-c4ccc(-c5ccccc5)nc4)cnn3c(N)c2S(C)(=O)=O)CC1 [Compound 106, (1R,4R)-4-(7-amino-6-(methylsulfonyl)-3-(6-phenylpyridin-3-yl)pyrazolo[1,5-a]pyrimidin-5-yl)-N-(cyclopropylmethoxy)-1-(2-methoxyethoxy)-cyclohexane-carboxamide]
20 | 1 to 100 | COCCO[C@]1(C(=O)c2nnc[nH]2)CC[C@H](c2nc3c(-c4cnn(-c5ccccc5)c4)cnn3c(N)c2S(C)(=O)=O)CC1 [Compound 123, ((1S,4S)-4-(7-amino-6-(methylsulfonyl)-3-(1-phenyl-1H-pyrazol-4-yl)pyrazolo[1,5-a]pyrimidin-5-yl)-1-(2-methoxyethoxy)cyclohexyl)(4H-1,2,4-triazol-3-yl)methanone]
21 | 1 to 100 | CC(=O)c1c(C2CCC(O)(CO)CC2)nc2c(-c3ccc(-c4ccc(O)nc4)nc3)cnn2c1N (stereo not drawn) [Compound 147, 1-(7-amino-3-(6′-hydroxy-2,3′-bipyridin-5-yl)-5-(4-hydroxy-4-(hydroxymethyl)-cyclohexyl)-pyrazolo-[1,5-a]pyrimidin-6-yl)ethanone]

From patent US8883801B2, “Substituted pyrazolo[1,5-a]pyrimidines as mTOR inhibitors” (Merck Sharp & Dohme Corp., priority 2010, dated 2014)
